As usually defined, the AC50 is the concentration giving half of the maximal activity seen.

The experiment deals with T1, POLγA:A467T (Homo sapiens, UniProt P54098, A467T).
T1 sequence (P54098 1-1239 A467T): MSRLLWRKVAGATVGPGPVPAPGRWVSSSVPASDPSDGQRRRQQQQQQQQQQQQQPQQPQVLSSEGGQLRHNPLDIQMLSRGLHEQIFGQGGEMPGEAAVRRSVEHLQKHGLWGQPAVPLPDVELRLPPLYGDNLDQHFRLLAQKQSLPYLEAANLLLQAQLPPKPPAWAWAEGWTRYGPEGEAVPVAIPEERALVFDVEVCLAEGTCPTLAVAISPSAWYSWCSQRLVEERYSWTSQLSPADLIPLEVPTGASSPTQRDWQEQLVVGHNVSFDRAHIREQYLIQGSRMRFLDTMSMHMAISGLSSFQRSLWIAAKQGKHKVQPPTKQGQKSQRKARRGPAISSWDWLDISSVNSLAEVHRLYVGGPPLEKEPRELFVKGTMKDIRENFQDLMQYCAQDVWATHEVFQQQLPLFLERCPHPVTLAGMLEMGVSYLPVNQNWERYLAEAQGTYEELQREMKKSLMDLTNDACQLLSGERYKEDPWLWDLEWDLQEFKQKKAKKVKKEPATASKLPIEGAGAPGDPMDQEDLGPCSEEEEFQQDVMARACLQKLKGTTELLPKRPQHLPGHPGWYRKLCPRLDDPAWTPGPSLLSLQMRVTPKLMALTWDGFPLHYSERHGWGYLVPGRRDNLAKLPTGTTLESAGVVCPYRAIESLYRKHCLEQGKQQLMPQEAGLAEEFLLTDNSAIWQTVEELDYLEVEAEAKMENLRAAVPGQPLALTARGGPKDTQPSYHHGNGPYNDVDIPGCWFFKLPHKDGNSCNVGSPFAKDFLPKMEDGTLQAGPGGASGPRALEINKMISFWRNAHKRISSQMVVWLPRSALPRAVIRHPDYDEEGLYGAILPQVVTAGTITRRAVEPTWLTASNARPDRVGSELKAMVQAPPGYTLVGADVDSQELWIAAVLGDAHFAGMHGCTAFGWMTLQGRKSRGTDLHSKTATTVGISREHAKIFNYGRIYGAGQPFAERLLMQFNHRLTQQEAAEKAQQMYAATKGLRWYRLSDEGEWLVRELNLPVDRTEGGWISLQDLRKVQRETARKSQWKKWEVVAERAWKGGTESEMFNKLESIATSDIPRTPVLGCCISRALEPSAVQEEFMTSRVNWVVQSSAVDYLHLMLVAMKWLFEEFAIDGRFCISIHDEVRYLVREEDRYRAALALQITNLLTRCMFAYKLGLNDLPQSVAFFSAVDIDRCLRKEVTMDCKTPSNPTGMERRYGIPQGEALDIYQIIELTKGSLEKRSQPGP
T1 sequence (Q9UHN1 1-485 partner): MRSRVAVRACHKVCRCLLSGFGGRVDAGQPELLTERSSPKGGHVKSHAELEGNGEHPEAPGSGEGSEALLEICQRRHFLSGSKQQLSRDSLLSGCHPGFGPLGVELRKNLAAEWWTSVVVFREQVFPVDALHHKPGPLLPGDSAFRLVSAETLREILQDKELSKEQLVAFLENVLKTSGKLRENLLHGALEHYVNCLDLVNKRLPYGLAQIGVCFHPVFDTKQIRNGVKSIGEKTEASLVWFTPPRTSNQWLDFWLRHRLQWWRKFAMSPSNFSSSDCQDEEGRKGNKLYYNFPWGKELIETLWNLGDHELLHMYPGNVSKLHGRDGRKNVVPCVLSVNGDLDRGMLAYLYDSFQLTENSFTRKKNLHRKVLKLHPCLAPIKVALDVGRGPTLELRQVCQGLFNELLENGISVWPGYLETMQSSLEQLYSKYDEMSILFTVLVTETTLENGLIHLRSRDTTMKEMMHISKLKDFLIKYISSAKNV
The experiment in a line: DNA polymerization assay, POLγA:A467T mutant. Type of experiment: biochemical. Conditions: stimulation of polymerase activity, primed M13mp18 ssDNA, 37° C. 2 hours; read-out: A467T AC50.
In the case of `Cc1cc(S(=O)(=O)Nc2nc(-c3ccccc3)cn2C)c(C)cc1Cl` [Example 159, 4-chloro-2,5-dimethyl-N-(1-methyl-4-phenyl-1H-imidazol-2-yl)benzenesulfonamide], the AC50 is over 100 µM. In the case of `Cc1cc(S(=O)(=O)Nc2csc(C(=O)N(CC(N)=O)C3CCCCC3)n2)c(C)cc1Cl` [Example 179, N-(2-amino-2-oxoethyl)-4-((4-chloro-2,5-dimethylphenyl)sulfonamido)-N-cyclohexylthiazole-2-carboxamide], the concentration at half-maximal activity (AC50) was over 100 µM.

For the molecule `Cc1cc(S(=O)(=O)Nc2csc(-c3ccn(C)n3)n2)c(C)cc1Cl` [Example 181, 4-chloro-2,5-dimethyl-N-(2-(1-methyl-1H-pyrazol-3-yl)thiazol-4-yl)benzenesulfonamide], the half-maximal activity concentration (AC50) is over 10 µM. On to `COc1ccc(S(=O)(=O)Nc2cccc(C(=O)N3CCSCC3C#N)c2)cc1` (stereo not shown) [Example 34, N-(3-(3-cyanothiomorpholine-4-carbonyl)phenyl)-4-methoxybenzenesulfonamide], for which the concentration at half-maximal activity (AC50) is over 100 µM. Turning to `Cc1ccc(C)c(S(=O)(=O)Nc2cccc(C(=O)N(C)Cc3ccccc3)c2)c1` [Example 26, N-benzyl-3-((2,5-dimethylphenyl)sulfonamido)-N-methylbenzamide], the AC50 is over 100 µM. Consider `Cc1ccc(C)c(S(=O)(=O)Nc2ccc(C(=O)N3CCCC[C@H]3C)s2)c1` [Example 43, (R)-2,5-dimethyl-N-(5-(2-methylpiperidine-1-carbonyl)thiopheN-2-yl)benzenesulfonamide], for which the AC50 was over 100 µM.

Consider `COc1ccccc1-c1nc(NS(=O)(=O)c2cc(C)c(Cl)cc2C)cs1` [Example 155, 4-chloro-N-(2-(2-methoxyphenyl)thiazol-4-yl)-2,5-dimethylbenzenesulfonamide], for which the AC50 was over 100 µM. On to `Cc1cc(S(=O)(=O)Nc2cccc(C(N)=O)c2)c(C)cc1Cl` [Example 44, 3-((4-chloro-2,5-dimethylphenyl)sulfonamido)benzamide], for which the AC50 is over 100 µM. As for `Cc1cc(S(=O)(=O)Nc2cc(-c3nccs3)ccc2F)c(C)cc1Cl` [Example 61, 4-chloro-N-(2-fluoro-5-(thiazol-2-yl)phenyl)-2,5-dimethylbenzenesulfonamide], the concentration at half-maximal activity (AC50) is over 100 µM. Turning to `Cc1cc(NS(=O)(=O)c2cc(C)ccc2C)cc(C(=O)N2CCCC[C@H]2C)c1` [Example 42, (R)-2,5-dimethyl-N-(3-methyl-5-(2-methylpiperidine-1-carbonyl)phenyl)benzenesulfonamide], the half-maximal activity concentration (AC50) is over 100 µM. Consider `Cc1ccc(C)c(S(=O)(=O)Nc2cccc(C(=O)N3CCSCC3)c2)c1` [Example 24, 2,5-dimethyl-N-(3-(thiomorpholine-4-carbonyl)phenyl)benzenesulfonamide], for which the concentration at half-maximal activity (AC50) was over 100 µM. Turning to `CC(=O)N1CCN(C(=O)c2cccc(NS(=O)(=O)c3cc(C)ccc3C)c2)CC1` [Example 30, N-(3-(4-acetylpiperazine-1-carbonyl)phenyl)-2,5-dimethylbenzenesulfonamide], the AC50 is over 100 µM.

In the case of `Cc1cc(S(=O)(=O)Nc2cccc(C(=O)N[C@H](C)c3ccccc3)c2)c(C)cc1Cl` [Example 48, (R)-3-((4-chloro-2,5-dimethylphenyl)sulfonamido)-N-(1-phenylethyl)benzamide], the half-maximal activity concentration (AC50) is over 100 µM. For the molecule `COCCNC(=O)c1cccc(NS(=O)(=O)c2cc(C)c(Cl)cc2C)c1` [Example 47, 3-((4-chloro-2,5-dimethylphenyl)sulfonamido)-N-(2-methoxyethyl)benzamide], the AC50 is over 100 µM. As for `Cc1cc(S(=O)(=O)Nc2cn(C)c(-c3ccccc3)n2)c(C)cc1Cl` [Example 170, 4-chloro-2,5-dimethyl-N-(1-methyl-2-phenyl-1H-imidazol-4-yl)benzenesulfonamide], the half-maximal activity concentration (AC50) was over 10 µM.

For `Cc1c(Cl)cccc1S(=O)(=O)Nc1csc(-c2ccccc2)n1` [Example 154, 3-chloro-2-methyl-N-(2-phenylthiazol-4-yl)benzenesulfonamide], the AC50 was over 100 µM. Regarding `Cc1nc2ccc(NS(=O)(=O)c3cc(C)c(Cl)cc3C)cc2o1` [Example 70, 4-chloro-2,5-dimethyl-N-(2-methylbenzo[d]oxazol-6-yl)benzenesulfonamide], the AC50 is 32 µM.

`Cc1cc2c(NS(=O)(=O)c3cc(C)c(Cl)cc3C)cccc2[nH]1` [Example 37, 4-chloro-2,5-dimethyl-N-(2-methyl-1H-indol-4-yl)benzenesulfonamide]: the concentration at half-maximal activity (AC50) was over 100 µM.

Take `Cc1ccc(C)c(S(=O)(=O)Nc2cccc(C(=O)N3CCN(C)CC3)c2)c1` [Example 31, 2,5-dimethyl-N-(3-(4-methylpiperazine-1-carbonyl)phenyl)benzenesulfonamide]: the AC50 was over 100 µM.

(Values after patent US20260138961A1, “MODULATORS OF MITOCHONDRIAL DNA REPLICATION” (Pretzel Therapeutics, Inc., priority 2022, published 2026).)
